Laboratory results reported in the supplement of paper PMC9663587.

Legend:
Assay in all cases: area over the GR curve, 72 h; higher = more effect;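 note: Dye Drop or Deep Dye Drop imaging of viable cells in 384-well plates (Hoechst nuclei, LIVE/DEAD dye), nine half-log doses, GR normalized to DMSO controls and time-zero plates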
[1] = test system: HCC1954
[2] = test system: HCC1806
[3] = test system: MDAMB415
[4] = test system: HS578T
[5] = test system: MDAMB330
[6] = test system: ZR751
[7] = test system: MDAMB468
[8] = test system: MDAMB436
[9] = test system: HCC38
[10] = test system: HCC70
[11] = test system: HCC1569
[12] = test system: MCF12A
[13] = test system: SUM52PE

Structure (SMILES)	area over the GR curve [1] [GR]	area over the GR curve [2] [GR]	area over the GR curve [3] [GR]	area over the GR curve [4] [GR]	area over the GR curve [5] [GR]	area over the GR curve [6] [GR]	area over the GR curve [7] [GR]	area over the GR curve [8] [GR]	area over the GR curve [9] [GR]	area over the GR curve [10] [GR]	area over the GR curve [11] [GR]	area over the GR curve [12] [GR]	area over the GR curve [13] [GR]
NC(=O)Nc1cc(-c2cccc(F)c2)sc1C(=O)N[C@H]1CCCNC1 [AZD7762] (max 10 µM)	0.515	0.89	0.398	0.863	0.704	0.201	0.487	0.65	0.916	0.839	0.772	0.521	0.634
CC(=O)c1c(C)c2cnc(Nc3ccc(N4CCN(CCOCCOCCOCCNC(=O)COc5cccc6c5C(=O)N(C5CCC(=O)NC5=O)C6=O)CC4)cn3)nc2n(C2CCCC2)c1=O (centres undefined) [BSJ-03-123] (max 10 µM)	0.33	0.21	0.332	0.298	0.443	0.267	0.265	0.0446	0.566	0.181	0.183	0.136	0.219
CC(C)NC[C@@H](C(=O)N1CCN(c2ncnc3c2[C@H](C)C[C@H]3O)CC1)c1ccc(Cl)cc1 [Ipatasertib/GDC0068] (max 10 µM)	0.214	0.0145	0.758	0.246	0.421	0.0518	0.223	0.104	0.122	0.488	0.227	0.0679	0.0168
Nc1ccc(-c2ccc3ncc4ccc(=O)n(-c5cccc(C(F)(F)F)c5)c4c3c2)cn1 [Torin2] (max 1 µM)	0.55	0.388	0.627	0.566	0.879	0.438	0.437	0.337	0.538	0.645	0.487	0.327	0.533
Cc1nc(NC(=O)N2CCC[C@H]2C(N)=O)sc1-c1ccnc(C(C)(C)C(F)(F)F)c1 [Alpelisib/BYL719] (max 10 µM)	0.264	0.0386	0.0453	0.0905	0.279	0.0495	0.0301	0.0552	0.0391	0.112	0.0913	0.0144	0.19
O=C(CCCCCCC(=O)Nc1ccccc1)NO [Vorinostat] (max 10 µM)	0.234	0.24	0.172	0.269	0.271	0.0343	0.217	0.163	0.284	0.38	0.163	0.0874	0.0969
O=C(c1cc(Cc2n[nH]c(=O)c3ccccc23)ccc1F)N1CCN(C(=O)C2CC2)CC1 [Olaparib/AZD2281] (max 10 µM)	0.0536	0.0953	-0.0472	0.0997	0.0605	0.0567	0.0573	0.305	0.0719	-0.0522	0.053	0.0468	-0.0471
CNC(=O)c1cccc(-c2ccc3c(N4CCOC[C@@H]4C)nc(N4CCOC[C@@H]4C)nc3n2)c1 [AZD2014] (max 10 µM)	0.568	0.349	0.762	0.504	1.38	0.8	0.401	0.363	0.418	0.778	0.625	0.529	0.682
COc1cc(N2CCN(C)CC2)ccc1Nc1ncc2c(n1)N(C)c1ccccc1C(=O)N2CC(F)(F)F [FMF-03-146-1]	0.0296	0.0215	0.0297	0.0103	0.0128	0.0552	0.0476	-0.005	0.0485	-0.0097	-0.0612	0.0258	-0.0411
CCOc1cc2ncc(C#N)c(Nc3ccc(OCc4ccccn4)c(Cl)c3)c2cc1NC(=O)/C=C/CN(C)C [Neratinib/HKI272] (max 3.162 µM)	0.429	0.191	0.0594	0.202	1.18	0.0964	0.386	0.188	0.102	0.317	0.397	0.194	0.0354
Cc1nc(-c2cn3c(n2)-c2ccc(-c4cnn(C(C)(C)C(N)=O)c4)cc2OCC3)n(C(C)C)n1 [Taselisib/GDC0032] (max 10 µM)	0.949	0.258	0.516	0.374	1.15	0.393	0.217	0.173	0.202	0.548	0.598	0.263	0.647
COc1ccc2c(c1)[C@]1(C[C@H]1c1ccc3c(/C=C/c4ccc(CN5C[C@@H](C)O[C@@H](C)C5)cc4)n[nH]c3c1)C(=O)N2	0.995	0.94	0.36	0.941	0.438	0.451	0.838	0.768	0.852	1.11	0.435	0.499	0.516
C=CCn1c(=O)c2cnc(Nc3ccc(N4CCN(C)CC4)cc3)nc2n1-c1cccc(C(C)(C)O)n1 [AZD1775] (max 10 µM)	0.295	0.847	0.28	0.759	0.655	0.143	0.47	0.497	0.961	1.15	0.825	0.255	0.158
